According to ChEMBL document CHEMBL5252630, “18-Residue Peptaibols Produced by the Sponge-Derived Trichoderma sp. GXIMD 01001” (J Nat Prod, 2023):
Values after ≈ are worked out from the molar mass of the structure shown. Active and inactive are the calls of the source. The rule behind the calls is not given here.

How the values were obtained:
SW1990 = assay: Antiproliferative activity against human SW1990 cells assessed as inhibition of cell growth incubated for 72 hrs by CCK-8 assay; format: functional, cell-based; settings: SW1990, 72 h
Pseudomonas aeruginosa = assay: Antibacterial activity against Pseudomonas aeruginosa ATCC 47085 assessed as inhibition of bacterial growth incubated for 24 hrs by microtiter plate reader analysis; format: functional
NCI-H1299 = assay: Antiproliferative activity against human NCI-H1299 cells assessed as inhibition of cell growth incubated for 72 hrs by CCK-8 assay; format: functional, cell-based; settings: NCI-H1299, 72 h
A549 = assay: Antiproliferative activity against human A549 cells assessed as inhibition of cell growth incubated for 72 hrs by CCK-8 assay; format: functional, cell-based; settings: A549, 72 h
[1] = test system: Staphylococcus epidermidis; assay: Antibacterial activity against Staphylococcus epidermidis ATCC 14990 assessed as inhibition of bacterial growth incubated for 24 hrs by microtiter plate reader analysis; format: functional
SW480 [2] = assay: Antiproliferative activity against human SW480 cells assessed as inhibition of cell growth incubated for 72 hrs by CCK-8 assay; format: functional, cell-based; settings: SW480, 72 h
Staphylococcus aureus = assay: Antibacterial activity against Staphylococcus aureus ATCC 25923 assessed as inhibition of bacterial growth incubated for 24 hrs by microtiter plate reader analysis; format: functional
SW480 [3] = assay: Inhibition of colony formation in human SW480 cells assessed as reduction in number of clonogenic cells at 0 to 2.5 uM incubated for 24 hrs followed by replacement with fresh medium and measured after 24 hrs by crystal violet staining based analysis; format: functional, cell-based; settings: dose 0-2.5 µM
SW480 [4] = assay: Induction of apoptosis in human SW480 cells assessed as increase in annexin V/PI positive cells incubated for 24 hrs by annexin V-FITC/PI staining based flow cytometry analysis; format: functional, cell-based; settings: dose 0-2.5 µM

SMILES	IC50 (SW1990)	MIC (Pseudomonas aeruginosa)	IC50 (NCI-H1299)	IC50 (A549)	MIC [1]	IC50 (SW480 [2])	MIC (Staphylococcus aureus)	inhibition (SW480 [3])	Activity (SW480 [4])
O=C(N[C@H](CO)[C@H](O)c1ccc([N+](=O)[O-])cc1)C(Cl)Cl [CHLORAMPHENICOL]		> 180 µg/mL			1.6 µg/mL (≈ 4.95 µM)		3.1 µg/mL (≈ 9.59 µM)		
CC[C@@](C)(NC(=O)[C@H](C)NC(=O)[C@H](CO)NC(=O)C(C)(C)NC(C)=O)C(=O)N[C@](C)(CC)C(=O)N[C@@H](CCC(N)=O)C(=O)N[C@](C)(CC)C(=O)N[C@H](C(=O)NC(C)(C)C(=O)NCC(=O)N[C@@H](CC(C)C)C(=O)NC(C)(C)C(=O)N1CCC[C@H]1C(=O)N[C@@H](CC(C)C)C(=O)NC(C)(C)C(=O)NC(C)(C)C(=O)N[C@@H](CCC(N)=O)C(=O)N[C@H](CO)Cc1ccccc1)C(C)C	1100 nM	> 180 µg/mL	3200 nM	2600 nM	90 µg/mL (≈ 49.7 µM)	1100 nM	23 µg/mL (≈ 12.7 µM)		
CC[C@@](C)(NC(=O)C(C)(C)NC(=O)[C@H](C)NC(=O)[C@H](C)NC(=O)C(C)(C)NC(C)=O)C(=O)N[C@@H](CCC(N)=O)C(=O)NC(C)(C)C(=O)N[C@H](C(=O)NC(C)(C)C(=O)NCC(=O)N[C@@H](CC(C)C)C(=O)NC(C)(C)C(=O)N1CCC[C@H]1C(=O)N[C@@H](CC(C)C)C(=O)NC(C)(C)C(=O)NC(C)(C)C(=O)N[C@@H](CCC(N)=O)C(=O)N[C@H](CO)Cc1ccccc1)C(C)C	900 nM	> 180 µg/mL	4700 nM	2700 nM	> 180 µg/mL	900 nM	45 µg/mL (≈ 25.5 µM)		
CC[C@@](C)(NC(=O)[C@H](C)NC(=O)[C@H](C)NC(=O)C(C)(C)NC(C)=O)C(=O)N[C@](C)(CC)C(=O)N[C@@H](CCC(N)=O)C(=O)NC(C)(C)C(=O)N[C@H](C(=O)NC(C)(C)C(=O)NCC(=O)N[C@@H](CC(C)C)C(=O)NC(C)(C)C(=O)N1CCC[C@H]1C(=O)N[C@@H](CC(C)C)C(=O)NC(C)(C)C(=O)NC(C)(C)C(=O)N[C@@H](CCC(N)=O)C(=O)N[C@H](CO)Cc1ccccc1)C(C)C	460 nM	> 180 µg/mL	1300 nM	1300 nM	> 180 µg/mL	460 nM	45 µg/mL (≈ 25.3 µM)	Active	Active

The remaining compounds from weak to strong by IC50 (SW1990), led by results:

IC50 (SW1990)	MIC (Pseudomonas aeruginosa)	IC50 (NCI-H1299)	IC50 (A549)	MIC [1]	IC50 (SW480 [2])	MIC (Staphylococcus aureus)	SMILES	inhibition (SW480 [3])	Activity (SW480 [4])
1500 nM	> 180 µg/mL	3000 nM	2700 nM	> 180 µg/mL	1500 nM	23 µg/mL (≈ 12.8 µM)	CC[C@@](C)(NC(=O)[C@H](C)NC(=O)[C@H](C)NC(=O)C(C)(C)NC(C)=O)C(=O)N[C@](C)(CC)C(=O)N[C@@H](CCC(N)=O)C(=O)N[C@](C)(CC)C(=O)N[C@H](C(=O)NC(C)(C)C(=O)NCC(=O)N[C@@H](CC(C)C)C(=O)NC(C)(C)C(=O)N1CCC[C@H]1C(=O)N[C@@H](CC(C)C)C(=O)NC(C)(C)C(=O)NC(C)(C)C(=O)N[C@@H](CCC(N)=O)C(=O)N[C@H](CO)Cc1ccccc1)C(C)C		
1300 nM	> 180 µg/mL	3400 nM	2500 nM	90 µg/mL (≈ 49.9 µM)	880 nM	23 µg/mL (≈ 12.7 µM)	CC[C@@](C)(NC(=O)C(C)(C)NC(=O)[C@H](C)NC(=O)[C@H](C)NC(=O)C(C)(C)NC(C)=O)C(=O)N[C@@H](CCC(N)=O)C(=O)NC(C)(C)C(=O)N[C@H](C(=O)NC(C)(C)C(=O)NCC(=O)N[C@@H](CC(C)C)C(=O)NC(C)(C)C(=O)N1CCC[C@H]1C(=O)N[C@@H](CC(C)C)C(=O)NC(C)(C)C(=O)NC(C)(C)C(=O)N[C@@H](CCC(N)=O)C(=O)N[C@H](CO)Cc1c[nH]c2ccccc12)C(C)C		
1200 nM	> 180 µg/mL	4000 nM	2800 nM	90 µg/mL (≈ 50.6 µM)	1200 nM	23 µg/mL (≈ 12.9 µM)	CC[C@@](C)(NC(=O)[C@H](CCC(N)=O)NC(=O)[C@@](C)(CC)NC(=O)C(C)(C)NC(=O)[C@H](C)NC(=O)[C@H](C)NC(=O)C(C)(C)NC(C)=O)C(=O)N[C@H](C(=O)NC(C)(C)C(=O)NCC(=O)N[C@@H](CC(C)C)C(=O)NC(C)(C)C(=O)N1CCC[C@H]1C(=O)N[C@@H](CC(C)C)C(=O)NC(C)(C)C(=O)NC(C)(C)C(=O)N[C@@H](CCC(N)=O)C(=O)N[C@H](CO)Cc1ccccc1)C(C)C		
960 nM	> 180 µg/mL	2900 nM	2800 nM	> 180 µg/mL	960 nM	45 µg/mL (≈ 24.7 µM)	CC[C@@H](C)[C@H](NC(=O)[C@@](C)(CC)NC(=O)[C@H](CCC(N)=O)NC(=O)[C@@](C)(CC)NC(=O)[C@@](C)(CC)NC(=O)[C@H](C)NC(=O)[C@H](CO)NC(=O)C(C)(C)NC(C)=O)C(=O)NC(C)(C)C(=O)NCC(=O)N[C@@H](CC(C)C)C(=O)NC(C)(C)C(=O)N1CCC[C@H]1C(=O)N[C@@H](CC(C)C)C(=O)NC(C)(C)C(=O)NC(C)(C)C(=O)N[C@@H](CCC(N)=O)C(=O)N[C@H](CO)Cc1ccccc1		
